# Data: US12624044B2, “SMARCA degraders and uses thereof” (Kymera Therapeutics, Inc., priority 2019, dated 2026)
# Target: SMARCA2 (Homo sapiens, UniProt P51531)
# Experiment: MSD SMARCA2 degradation in A549 cell line
# Format: cell-based
# Settings: 24 h; for Dmax: A549, A549 cells; for DC50: A549 cells, read-out: SMARCA2 MSD A549 degradation 24 h: Average external-Abs DC50
# Procedure, shortened: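 A549 cells treated 24 h with compound at final 0.152-1000 nM (3-fold series, DMSO control). Lysates analyzed by MSD immunoassay using anti-SMARCA2/BRM detection and SULFO-TAG secondary antibodies; maximal degradation (Dmax %) reported as letter bins.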
# SMARCA2, sequence (P51531 whole entry): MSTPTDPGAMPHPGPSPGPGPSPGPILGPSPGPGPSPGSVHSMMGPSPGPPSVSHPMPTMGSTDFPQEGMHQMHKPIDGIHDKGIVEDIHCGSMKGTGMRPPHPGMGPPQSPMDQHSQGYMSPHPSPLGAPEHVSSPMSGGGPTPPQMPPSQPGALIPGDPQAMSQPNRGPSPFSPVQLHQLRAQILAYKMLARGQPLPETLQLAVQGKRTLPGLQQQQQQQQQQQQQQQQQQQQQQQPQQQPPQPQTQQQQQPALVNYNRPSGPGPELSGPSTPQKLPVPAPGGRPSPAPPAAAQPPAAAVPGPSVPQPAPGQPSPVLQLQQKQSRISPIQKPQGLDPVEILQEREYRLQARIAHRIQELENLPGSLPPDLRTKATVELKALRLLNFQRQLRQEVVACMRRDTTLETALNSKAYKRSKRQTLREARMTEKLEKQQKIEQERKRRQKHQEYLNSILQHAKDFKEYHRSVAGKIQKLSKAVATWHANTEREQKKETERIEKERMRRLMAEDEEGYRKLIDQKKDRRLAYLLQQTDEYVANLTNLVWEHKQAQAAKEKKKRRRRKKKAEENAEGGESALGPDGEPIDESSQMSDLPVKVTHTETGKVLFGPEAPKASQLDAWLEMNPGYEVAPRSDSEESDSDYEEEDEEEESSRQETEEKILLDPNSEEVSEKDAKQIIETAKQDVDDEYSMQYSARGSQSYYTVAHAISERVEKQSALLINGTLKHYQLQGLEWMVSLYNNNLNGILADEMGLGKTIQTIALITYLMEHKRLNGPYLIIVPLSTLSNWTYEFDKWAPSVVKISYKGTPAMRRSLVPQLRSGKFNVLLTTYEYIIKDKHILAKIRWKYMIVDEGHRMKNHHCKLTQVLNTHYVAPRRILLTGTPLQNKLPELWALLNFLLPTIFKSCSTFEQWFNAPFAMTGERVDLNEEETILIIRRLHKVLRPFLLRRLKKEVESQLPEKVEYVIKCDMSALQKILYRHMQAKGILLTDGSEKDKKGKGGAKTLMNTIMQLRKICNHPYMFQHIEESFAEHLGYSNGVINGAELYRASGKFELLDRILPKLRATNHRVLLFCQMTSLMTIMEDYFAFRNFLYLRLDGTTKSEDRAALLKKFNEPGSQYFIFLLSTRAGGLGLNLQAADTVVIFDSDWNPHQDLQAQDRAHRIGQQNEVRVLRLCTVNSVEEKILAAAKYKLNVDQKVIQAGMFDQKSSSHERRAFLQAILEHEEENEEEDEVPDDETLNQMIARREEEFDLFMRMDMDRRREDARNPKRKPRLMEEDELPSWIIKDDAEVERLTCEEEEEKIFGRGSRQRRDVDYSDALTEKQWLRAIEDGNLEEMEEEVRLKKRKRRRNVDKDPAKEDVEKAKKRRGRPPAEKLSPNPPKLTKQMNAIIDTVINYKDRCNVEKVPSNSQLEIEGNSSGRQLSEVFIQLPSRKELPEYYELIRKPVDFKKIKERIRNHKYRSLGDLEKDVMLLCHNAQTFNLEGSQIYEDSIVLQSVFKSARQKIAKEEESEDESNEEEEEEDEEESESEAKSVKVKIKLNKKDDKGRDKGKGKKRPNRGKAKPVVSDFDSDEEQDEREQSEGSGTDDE
SMILES,Dmax [%],DC50 [µM]
CN(Cc1ccc(C#Cc2cc(NC(=O)Nc3cc(F)ncc3CO)ccn2)cc1)CC1CCN(Cc2cccc3c2n(C)c(=O)n3C2CCC(=O)NC2=O)CC1 (centres unmarked) [I-308],< 50,> 1
CN(Cc1cccc(C#Cc2cc(NC(=O)Nc3cc(F)ncc3CO)ccn2)c1)C1CCN(Cc2cccc3c2n(C)c(=O)n3C2CCC(=O)NC2=O)CC1 (centres unmarked) [I-318],< 50,> 1
COc1ccccc1-c1cc(N2CC3CCC(C2)N3c2ncc(C3CCN(CCCNC(=O)COc4ccc5c(c4)CCCN5C(=O)CCl)CC3)cn2)c(N)nn1 [I-527],< 50,> 1
CN(Cc1ccc(C#Cc2cc(NC(=O)Nc3cc(F)ncc3CO)ccn2)cc1)C1CCN(C(=O)c2cccc3c2n(C)c(=O)n3C2CCC(=O)NC2=O)CC1 (centres unmarked) [I-311],< 50,> 1
CN(Cc1cccc(C#Cc2cc(NC(=O)Nc3cc(F)ncc3CO)ccn2)c1)CC1CCN(Cc2cccc3c2n(C)c(=O)n3C2CCC(=O)NC2=O)CC1 (centres unmarked) [I-316],< 50,> 1
CN(CCCOCCCc1cccc2c1n(C)c(=O)n2C1CCC(=O)NC1=O)Cc1cccc(C#Cc2cc(NC(=O)Nc3cc(F)ncc3CO)ccn2)c1 (centres unmarked) [I-312],< 50,> 1
Cc1ncsc1-c1ccc(CNC(=O)[C@@H]2C[C@@H](O)CN2C(=O)[C@@H](NC(=O)[C@H]2CC[C@H](C(=O)N(C)Cc3cnc(N4C5CCC4CN(c4cc(-c6ccccc6O)nnc4N)C5)nc3)CC2)C(C)(C)C)cc1 [I-396],70 to 90,0.1 to 0.5
Cc1ncsc1-c1ccc(CNC(=O)[C@@H]2C[C@@H](O)CN2C(=O)[C@@H](NC(=O)[C@H]2CC[C@@H](N3CCC(N4CCC(n5cc(-c6cc(-c7ccccc7O)nnc6N)cn5)CC4)CC3)CC2)C(C)(C)C)cc1 [I-435],< 50,> 1
Cc1ncsc1-c1ccc(CNC(=O)[C@@H]2C[C@@H](O)CN2C(=O)[C@@H](NC(=O)[C@H]2CC[C@@H](c3cnc(N4C5CCC4CN(c4cc(-c6ccccc6O)nnc4N)C5)nc3C)CC2)C(C)(C)C)cc1 [I-440],> 90,0.1 to 0.5
Cc1ncsc1-c1ccc(CNC(=O)[C@@H]2C[C@@H](O)CN2C(=O)[C@@H](NC(=O)[C@H]2C[C@]3(C[C@H](CN(C)Cc4cnc(N5C6CCC5CN(c5cc(-c7ccccc7O)nnc5N)C6)nc4)C3)C2)C(C)(C)C)cc1 (some centres unmarked) [I-443],,0.1 to 0.5
Cc1ncsc1-c1ccc(CNC(=O)[C@@H]2C[C@@H](O)CN2C(=O)[C@@H](NC(=O)[C@H]2CC[C@@H](Cc3ccc(-c4cnc(N5C6CCC5CN(c5cc(-c7ccccc7O)nnc5N)C6)nc4)cc3)CC2)C(C)(C)C)cc1 [I-413],70 to 90,0.1 to 0.5
Cn1c(=O)n(C2CCC(=O)NC2=O)c2cccc(CN3CCC(OC4CCN(Cc5ccc(C#Cc6cc(NC(=O)Nc7cc(F)ncc7CO)ccn6)cc5)CC4)CC3)c21 (centres unmarked) [I-305],< 50,> 1
Cc1ncsc1-c1ccc(CNC(=O)[C@@H]2C[C@@H](O)CN2C(=O)[C@@H](NC(=O)CNCc2ccc(C#Cc3cc(NC(=O)Nc4cc(F)ncc4CO)ccn3)cc2)C(C)(C)C)cc1 [I-491],< 50,> 1
Cc1ncsc1-c1ccc(CNC(=O)[C@@H]2C[C@@H](O)CN2C(=O)[C@@H](NC(=O)CCN2CCC(n3cc(-c4cc(-c5ccccc5O)nnc4N)cn3)CC2)C(C)(C)C)cc1 [I-458],< 50,> 1
Cc1ncsc1-c1ccc(CNC(=O)[C@@H]2C[C@@H](O)CN2C(=O)[C@@H](NC(=O)[C@H]2CC[C@@H](CN3CCC(c4cnc(N5C6CCC5CN(c5cc(-c7ccccc7O)nnc5N)C6)nc4)CC3)CC2)C(C)(C)C)cc1 [I-373],> 90,0.1 to 0.5
Cc1ncsc1-c1ccc(CNC(=O)[C@@H]2C[C@@H](O)CN2C(=O)[C@@H](NC(=O)CCCCCCCNCc2ccc(C#Cc3cc(NC(=O)Nc4cc(F)ncc4CO)ccn3)cc2)C(C)(C)C)cc1 [I-494],< 50,> 1
Cc1ncsc1-c1ccc(CNC(=O)[C@@H]2C[C@@H](O)CN2C(=O)[C@@H](NC(=O)CCCCCNCc2cccc(C#Cc3cc(NC(=O)Nc4cc(F)ncc4CO)ccn3)c2)C(C)(C)C)cc1 [I-489],< 50,> 1
O=C1CCC(n2c(=O)oc3c(CCCOC4CCN(Cc5cccc(C#Cc6cc(NC(=O)Nc7cc(F)ncc7CO)ccn6)c5)CC4)cccc32)C(=O)N1 (centres unmarked) [I-317],< 50,> 1
Cc1ncsc1-c1ccc(CNC(=O)[C@@H]2C[C@@H](O)CN2C(=O)[C@@H](NC(=O)CCCN(C)CC#Cc2cnc(N3C4CCC3CN(c3cc(-c5ccccc5O)nnc3N)C4)nc2)C(C)(C)C)cc1 [I-497],< 50,> 1
Cc1ncsc1-c1ccc(CNC(=O)[C@@H]2C[C@@H](O)CN2C(=O)[C@@H](NC(=O)C[C@H]2C[C@@H](N3CCC(c4cnc(N5C6CCC5CN(c5cc(-c7ccccc7O)nnc5N)C6)nc4)CC3)C2)C(C)(C)C)cc1 [I-392],70 to 90,0.1 to 0.5

SMILES,Dmax [%],DC50 [µM]
Cc1ncsc1-c1ccc(CNC(=O)[C@@H]2C[C@@H](O)CN2C(=O)[C@@H](NC(=O)[C@H]2CC[C@@H](CCCCCN3CCC(Cn4cc(-c5cc(-c6ccccc6O)nnc5N)cn4)CC3)CC2)C(C)(C)C)cc1 [I-377],70 to 90,0.1 to 0.5
Cc1ncsc1-c1ccc(CNC(=O)[C@@H]2C[C@@H](O)CN2C(=O)[C@@H](NC(=O)C2CC=C(c3nccc(N4C5CCC4CN(c4cc(-c6ccccc6O)nnc4N)C5)n3)CC2)C(C)(C)C)cc1 (some centres unmarked) [I-418],> 90,0.1 to 0.5
Cc1ncsc1-c1ccc(CNC(=O)[C@@H]2C[C@@H](O)CN2C(=O)[C@@H](NC(=O)[C@H]2CC3(C[C@H](CN4CCC(c5cnc(N6C7CCC6CN(c6cc(-c8ccccc8O)nnc6N)C7)nc5)CC4)C3)C2)C(C)(C)C)cc1 (some centres unmarked) [I-426],> 90,0.1 to 0.5
Cc1ncsc1-c1ccc(CNC(=O)[C@@H]2C[C@@H](O)CN2C(=O)[C@@H](NC(=O)[C@H]2CC3CCC2C[C@@H]3c2cnc(N3C4CCC3CN(c3cc(-c5ccccc5O)nnc3N)C4)nc2)C(C)(C)C)cc1 (some centres unmarked) [I-441],> 90,0.1 to 0.5
Cc1ncsc1-c1ccc(CNC(=O)[C@@H]2C[C@@H](O)CN2C(=O)[C@@H](NC(=O)[C@H]2CC[C@H](Cc3cnc(N4C5CCC4CN(c4cc(-c6ccccc6O)nnc4N)C5)nc3)CC2)C(C)(C)C)c(C(F)(F)F)c1 [I-422],> 90,0.1 to 0.5
Cc1ncsc1-c1ccc(CNC(=O)[C@@H]2C[C@@H](O)CN2C(=O)[C@@H](NC(=O)[C@H]2CC[C@H](N(C)Cc3cnc(N4C5CCC4CN(c4cc(-c6ccccc6O)nnc4N)C5)nc3)CC2)C(C)(C)C)cc1 [I-372],50 to 70,0.501 to 1
Cc1ncsc1-c1ccc(CNC(=O)[C@@H]2C[C@@H](O)CN2C(=O)[C@@H](NC(=O)[C@H]2CC[C@H](N3CC(c4cnc(N5C6CCC5CN(c5cc(-c7ccccc7O)nnc5N)C6)nc4)C3)CC2)C(C)(C)C)cc1 [I-393],> 90,0.1 to 0.5
Nc1nnc(-c2ccccc2O)cc1N1CC2CCC(C1)N2c1ncc(C2CCN(CCCCCCCCOc3ccc(Oc4ccc(N(Cc5ccccc5)C(=O)CCl)cc4)cc3)CC2)cn1 [I-532],50 to 70,> 1
Cn1c(=O)n(C2CCC(=O)NC2=O)c2cccc(CCCOC3CCN(Cc4cccc(C#Cc5cc(NC(=O)Nc6cc(F)ncc6CO)ccn5)c4)CC3)c21 (centres unmarked) [I-315],< 50,> 1
Cc1ncsc1-c1ccc(CNC(=O)[C@@H]2C[C@@H](O)CN2C(=O)[C@@H](NC(=O)[C@H]2CC[C@H](CN3CCC(c4cnc(N5C6CCC5CN(c5cc(-c7ccccc7O)nnc5N)C6)nc4)CC3)CC2)C(C)(C)C)c(C(F)(F)F)c1 [I-398],50 to 70,0.501 to 1
Cc1ncsc1-c1ccc(CNC(=O)[C@@H]2C[C@@H](O)CN2C(=O)[C@@H](NC(=O)[C@H]2CC[C@@H](N(C)Cc3cnc(N4C5CCC4CN(c4cc(-c6ccccc6O)nnc4N)C5)nc3)CC2)C(C)(C)C)cc1 [I-371],> 90,0.1 to 0.5
Cc1ncsc1-c1ccc(CNC(=O)[C@@H]2C[C@@H](O)CN2C(=O)[C@@H](NC(=O)[C@H]2CC[C@@H](Cc3cnc(N4C5CCC4CN(c4cc(-c6ccccc6O)nnc4N)C5)nc3)CC2)C(C)(C)C)cc1 [I-367],> 90,< 0.1
Nc1nnc(-c2ccccc2O)cc1N1CC2CCC(C1)N2c1ncc(C2CCN(CCCCOc3ccc(Oc4ccc(N(Cc5ccccc5)C(=O)CCl)cc4)cc3)CC2)cn1 [I-530],< 50,> 1
Nc1nnc(-c2ccccc2O)cc1N1CC2CCC(C1)N2c1ncc(C2CCN(CCCCCCOc3ccc(Oc4ccc(N(Cc5ccccc5)C(=O)CCl)cc4)cc3)CC2)cn1 [I-531],< 50,> 1
Cn1c(=O)n(C2CCC(=O)NC2=O)c2ccc(CCCOCCCCN3CCN(Cc4ccc(C#Cc5cc(NC(=O)Nc6cc(F)ncc6CO)ccn5)cc4)CC3)cc21 (centres unmarked) [I-306],< 50,> 1
Cn1c(=O)n(C2CCC(=O)NC2=O)c2ccc(CCCCCCCCCNCc3ccc(C#Cc4cc(NC(=O)Nc5cc(F)ncc5CO)ccn4)cc3)cc21 (centres unmarked) [I-303],< 50,> 1
Cc1ncsc1-c1ccc(CNC(=O)[C@@H]2C[C@@H](O)CN2C(=O)[C@@H](NC(=O)[C@H]2C[C@@H](CN3CCC(c4cnc(N5C6CCC5CN(c5cc(-c7ccccc7O)nnc5N)C6)nc4)CC3)C2)C(C)(C)C)cc1 [I-374],70 to 90,0.1 to 0.5
Cn1c(=O)n(C2CCC(=O)NC2=O)c2cccc(CN3CCC(OC4CCN(Cc5cccc(C#Cc6cc(NC(=O)Nc7cc(F)ncc7CO)ccn6)c5)CC4)CC3)c21 (centres unmarked) [I-313],< 50,> 1
"Cc1ncsc1-c1ccc(CNC(=O)[C@@H]2C[C@@H](O)CN2C(=O)[C@@H](NC(=O)CN2CCC(c3ccc(C#Cc4cc(NC(=O)Nc5cc(F)ncc5CO)ccn4)cc3)CC2)C(C)(C)C)cc1 [I-500, (2S,4R)-1-((S)-2-(2-(4-(4-((4-(3-(2-fluoro-5-(hydroxymethyl)pyridin-4-yl)ureido)pyridin-2-yl)ethynyl)phenyl)piperidin-1-yl)acetamido)-3,3-dimethylbutanoyl)-4-hydroxy-N-(4-(4-methylthiazol-5-yl)benzyl)pyrrolidine-2-carboxamide]",< 50,> 1
